Results published in PubChem BioAssay AID248 (DTP/NCI, 2004).
“And” between values parts separate entries of the source, which are not always exact repeats. Identical values can stand only once. Inconclusive results and toxic doses are left out. Rule as the data show it: active = T/C of 150% or more; inactive = T/C below 125%.

Tested on: L1210 leukemia ip in BDF1 mice, survival T/C
Experiment: NCI In Vivo Anticancer Drug Screen. Data for tumor model L1210 Leukemia (intraperitoneal) in B6D2F1 (BDF1) mice
Conditions: endpoint: mean survival time, higher = longer survival
Summary of the method: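 Tumor was transplanted into mice, which were then dosed with test compound or vehicle alone. Survival was recorded for each group, and the treated figure was expressed relative to the control figure.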

[1] = dose: 100.0 mg/kg/injection, schedule: Q04DX002 (ip), vehicle: saline with Tween-80
[2] = dose: 200.0 mg/kg/injection, schedule: Q04DX002 (ip), vehicle: saline with Tween-80
[3] = dose: 400.0 mg/kg/injection, schedule: Q04DX002 (ip), vehicle: saline with Tween-80
[4] = dose: 100.0 mg/kg/injection, schedule: Q01DX009 (ip), vehicle: Klucel (hydroxypropylcellulose) (HPC)
[5] = dose: 200.0 mg/kg/injection, schedule: Q01DX009 (ip), vehicle: Klucel (hydroxypropylcellulose) (HPC)
[6] = dose: 400.0 mg/kg/injection, schedule: Q01DX009 (ip), vehicle: Klucel (hydroxypropylcellulose) (HPC)
[7] = dose: 100.0 mg/kg/injection, schedule: Q01DX001 (ip), vehicle: saline
[8] = dose: 200.0 mg/kg/injection, schedule: Q01DX001 (ip), vehicle: saline
[9] = dose: 400.0 mg/kg/injection, schedule: Q01DX001 (ip), vehicle: saline
[10] = dose: 100.0 mg/kg/injection, schedule: Q04DX002 (ip), vehicle: Klucel (hydroxypropylcellulose) (HPC)
[11] = dose: 200.0 mg/kg/injection, schedule: Q04DX002 (ip), vehicle: Klucel (hydroxypropylcellulose) (HPC)
[12] = dose: 12.5 mg/kg/injection, schedule: Q04DX003 (ip), vehicle: saline with Tween-80
[13] = dose: 25.0 mg/kg/injection, schedule: Q04DX003 (ip), vehicle: saline with Tween-80
[14] = dose: 50.0 mg/kg/injection, schedule: Q04DX003 (ip), vehicle: saline with Tween-80
[15] = dose: 6.25 mg/kg/injection, schedule: Q01DX009 (ip), vehicle: saline with Tween-80
[16] = dose: 100.0 mg/kg/injection, schedule: Q04DX003 (ip), vehicle: saline with Tween-80
[17] = dose: 100.0 mg/kg/injection, schedule: Q01DX001 (ip), vehicle: Klucel (hydroxypropylcellulose) (HPC)
[18] = dose: 200.0 mg/kg/injection, schedule: Q01DX001 (ip), vehicle: Klucel (hydroxypropylcellulose) (HPC)
[19] = dose: 400.0 mg/kg/injection, schedule: Q01DX001 (ip), vehicle: Klucel (hydroxypropylcellulose) (HPC)
[20] = dose: 100.0 mg/kg/injection, schedule: Q01DX009 (ip), vehicle: saline with Tween-80
[21] = dose: 200.0 mg/kg/injection, schedule: Q01DX009 (ip), vehicle: saline with Tween-80
[22] = dose: 400.0 mg/kg/injection, schedule: Q01DX009 (ip), vehicle: saline with Tween-80
[23] = dose: 100.0 mg/kg/injection, schedule: Q04DX003 (ip), vehicle: saline
[24] = dose: 200.0 mg/kg/injection, schedule: Q04DX003 (ip), vehicle: saline
[25] = dose: 400.0 mg/kg/injection, schedule: Q04DX003 (ip), vehicle: saline

Measured: T/C

O=C(N/N=C/c1ccccc1Cl)C(O)C(O)C(O)C(O)CO (stereo not drawn)
inactive: [1] 112 % of control | [2] 94 % of control | [3] 94 % of control

CCc1ccc(NC(=S)NC(=O)C(C)Oc2ccccc2)cc1 (stereo not drawn)
inactive: dose: 100.0 mg/kg/injection, schedule: Q04DX002 (ip), vehicle: saline 110 % of control | dose: 200.0 mg/kg/injection, schedule: Q04DX002 (ip), vehicle: saline 103 % of control | dose: 400.0 mg/kg/injection, schedule: Q04DX002 (ip), vehicle: saline 90 % of control

CCCCCCC(O)CCc1ccccc1 (stereo not drawn)
inactive: [4] 103 % of control | [5] 102 % of control | [6] 113 % of control

O=c1cccc(CCc2ccccc2)[nH]1
inactive: [7] 100 % of control | [8] 95 % of control | [9] 105 % of control

CCCCCCCCCCCCCCCCCCNC(=O)N(c1ccccc1)C1CCCCC1
inactive: [10] 101 % of control | [11] 93 % of control | dose: 400.0 mg/kg/injection, schedule: Q04DX002 (ip), vehicle: Klucel (hydroxypropylcellulose) (HPC) 87 % of control

CN(C(=O)/C=C/c1ccccc1)C1CCCCC1
inactive: [4] 101 % of control | [5] 110 % of control | [6] 111 % of control

C#CC(=O)OCC
inactive: [12] 103 % of control | dose: 25.0 mg/kg/injection, schedule: Q01DX001 (ip), vehicle: saline with Tween-80 105 % of control | [13] 106 % of control | dose: 50.0 mg/kg/injection, schedule: Q01DX001 (ip), vehicle: saline with Tween-80 108 % of control | [14] 119 % of control

CNC(=O)NC1CC(OC2CC(O)(C(C)=O)Cc3c(O)c4c(c(O)c32)C(=O)c2c(OC)cccc2C4=O)OC(C)C1O (stereo not drawn)
inactive: dose: 2.0 mg/kg/injection, schedule: Q04DX003 (ip), vehicle: water 103 % of control | dose: 3.12 mg/kg/injection, schedule: Q01DX009 (ip), vehicle: saline with Tween-80 108 % of control | dose: 4.0 mg/kg/injection, schedule: Q04DX003 (ip), vehicle: water 98 % of control | [15] 97 % of control | dose: 8.0 mg/kg/injection, schedule: Q04DX003 (ip), vehicle: water 107 % of control | dose: 12.5 mg/kg/injection, schedule: Q01DX009 (ip), vehicle: saline with Tween-80 103 % of control | [12] 100 % of control | dose: 16.0 mg/kg/injection, schedule: Q04DX003 (ip), vehicle: water 95 % of control and 103 % of control | dose: 25.0 mg/kg/injection, schedule: Q01DX009 (ip), vehicle: saline with Tween-80 112 % of control | [13] 100 % of control | dose: 32.0 mg/kg/injection, schedule: Q04DX003 (ip), vehicle: water 100 % of control | dose: 50.0 mg/kg/injection, schedule: Q01DX009 (ip), vehicle: saline with Tween-80 111 % of control | [14] 100 % of control | dose: 64.0 mg/kg/injection, schedule: Q04DX003 (ip), vehicle: water 104 % of control | [16] 100 % of control | dose: 125.0 micrograms/kg/injection, schedule: Q04DX003 (ip), vehicle: water 104 % of control | dose: 250.0 micrograms/kg/injection, schedule: Q04DX003 (ip), vehicle: water 104 % of control | dose: 500.0 micrograms/kg/injection, schedule: Q04DX003 (ip), vehicle: water 105 % of control | dose: 1000.0 micrograms/kg/injection, schedule: Q04DX003 (ip), vehicle: water 104 % of control | dose: 2000.0 micrograms/kg/injection, schedule: Q04DX003 (ip), vehicle: water 101 % of control

O/N=C/C=N/O.O/N=C/C=N/O.[Pd]
inactive: dose: 1.56 mg/kg/injection, schedule: Q01DX009 (ip), vehicle: saline with Tween-80 110 % of control | dose: 3.13 mg/kg/injection, schedule: Q01DX009 (ip), vehicle: saline with Tween-80 97 % of control | [15] 112 % of control

COC(=O)CCc1c(C)[nH]c(C(=O)OC(C)(C)C)c1C
inactive: [17] 97 % of control | dose: 100.0 mg/kg/injection, schedule: Q04DX003 (ip), vehicle: Klucel (hydroxypropylcellulose) (HPC) 93 % of control | [18] 101 % of control | dose: 200.0 mg/kg/injection, schedule: Q04DX003 (ip), vehicle: Klucel (hydroxypropylcellulose) (HPC) 98 % of control | [19] 93 % of control | dose: 400.0 mg/kg/injection, schedule: Q04DX003 (ip), vehicle: Klucel (hydroxypropylcellulose) (HPC) 95 % of control

C/C(C(=O)O)=C1\N=C(N)NC1=O
inactive: [17] 98 % of control | [18] 96 % of control | [19] 102 % of control

CCCC(NC(=O)C(C)Br)C(=O)O (stereo not drawn)
inactive: [20] 88 % of control | [21] 98 % of control | [22] 95 % of control

COC(=O)CC1=C(C)CCc2cc3c(cc21)sc1ccccc13
inactive: [7] 94 % of control | [8] 94 % of control | [9] 101 % of control

Clc1ccc(C=Nc2ccc(Cl)cc2)cc1
inactive: [16] 108 % of control | dose: 200.0 mg/kg/injection, schedule: Q04DX003 (ip), vehicle: saline with Tween-80 90 % of control | dose: 400.0 mg/kg/injection, schedule: Q04DX003 (ip), vehicle: saline with Tween-80 106 % of control

O=C(CCCCCCCCC(=O)N/N=C/c1ccc(O)cc1)N/N=C/c1ccc(O)cc1
inactive: dose: 100.0 mg/kg/injection, schedule: Q01DX001 (ip), vehicle: saline with Tween-80 90 % of control | [20] 89 % of control and 92 % of control | [1] 97 % of control and 100 % of control | [23] 97 % of control | dose: 200.0 mg/kg/injection, schedule: Q01DX001 (ip), vehicle: saline with Tween-80 92 % of control | [21] 100 % of control and 87 % of control | [2] 95 % of control and 97 % of control | [24] 92 % of control | dose: 400.0 mg/kg/injection, schedule: Q01DX001 (ip), vehicle: saline with Tween-80 95 % of control | [22] 101 % of control and 87 % of control | [3] 94 % of control and 92 % of control | [25] 88 % of control

CC(=O)NNc1nc(C)cs1
inactive: [16] 97 % of control

CCCCCCCCCCCCNC(=S)NCCCC
inactive: dose: 50.0 mg/kg/injection, schedule: Q04DX002 (ip), vehicle: Klucel (hydroxypropylcellulose) (HPC) 91 % of control | [10] 95 % of control | [11] 98 % of control

CC(C)NC1C2CCC(CC2)C1(O)c1ccc(Cl)c(Cl)c1 (stereo not drawn)
inactive: dose: 25.0 mg/kg/injection, schedule: Q01DX009 (ip), vehicle: saline 101 % of control | dose: 25.0 mg/kg/injection, schedule: Q04DX003 (ip), vehicle: saline 95 % of control | dose: 50.0 mg/kg/injection, schedule: Q01DX009 (ip), vehicle: saline 95 % of control | dose: 50.0 mg/kg/injection, schedule: Q04DX003 (ip), vehicle: saline 97 % of control | dose: 100.0 mg/kg/injection, schedule: Q01DX009 (ip), vehicle: saline 100 % of control | [23] 92 % of control | dose: 200.0 mg/kg/injection, schedule: Q01DX009 (ip), vehicle: saline 95 % of control | [24] 101 % of control | dose: 400.0 mg/kg/injection, schedule: Q01DX009 (ip), vehicle: saline 92 % of control | [25] 92 % of control

ClCCN1CCOC1=Nc1ccccc1
inactive: dose: 100.0 mg/kg/injection, schedule: Q01DX001 (ip), vehicle: other 105 % of control | dose: 200.0 mg/kg/injection, schedule: Q01DX001 (ip), vehicle: other 105 % of control | dose: 400.0 mg/kg/injection, schedule: Q01DX001 (ip), vehicle: other 100 % of control
